From PubChem BioAssay AID1963852 (Molecular Pharmacology Branch, DTP, NCI, 2024)

Tested on: 282377-053-R-J1-PDC complex spheroid viability
Assay: Anticancer human tumor 282377-053-R-J1-PDC patient-derived colon adenocarcinoma cell line growth inhibition [POLQ]
Conditions: for IC50: curve of first compound; for viability, T/C: stronger effect = lower value
Procedure, shortened: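 Growth inhibition in 3D: complex spheroids (tumor PDC, HUVEC, MSC) treated with POLQ inhibitor combinations; where Cmax unknown, highest tested concentration 10 microM, except SN-38 at 1 microM.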

[1] = second compound 0.0316 µM, first compound 0.00316 µM
[2] = second compound 0.0316 µM, first compound 0.01 µM
[3] = second compound 0.0316 µM, first compound 0.0316 µM
[4] = second compound 0.0316 µM, first compound 0.1 µM
[5] = second compound 0.0316 µM, first compound 0.316 µM
[6] = second compound 0.0316 µM, first compound 1 µM
[7] = second compound 0.1 µM, first compound 0.00316 µM
[8] = second compound 0.1 µM, first compound 0.01 µM
[9] = second compound 0.1 µM, first compound 0.0316 µM
[10] = second compound 0.1 µM, first compound 0.1 µM
[11] = second compound 0.1 µM, first compound 0.316 µM
[12] = second compound 0.1 µM, first compound 1 µM
[13] = second compound 0.316 µM, first compound 0.00316 µM
[14] = second compound 0.316 µM, first compound 0.01 µM
[15] = second compound 0.316 µM, first compound 0.0316 µM
[16] = second compound 0.316 µM, first compound 0.1 µM
[17] = second compound 0.316 µM, first compound 0.316 µM
[18] = second compound 0.316 µM, first compound 1 µM
[19] = second compound 1 µM, first compound 0.00316 µM
[20] = second compound 1 µM, first compound 0.01 µM
[21] = second compound 1 µM, first compound 0.0316 µM
[22] = second compound 1 µM, first compound 0.1 µM
[23] = second compound 1 µM, first compound 0.316 µM
[24] = second compound 1 µM, first compound 1 µM
[25] = second compound 3.16 µM, first compound 0.00316 µM
[26] = second compound 3.16 µM, first compound 0.01 µM
[27] = second compound 3.16 µM, first compound 0.0316 µM
[28] = second compound 3.16 µM, first compound 0.1 µM
[29] = second compound 3.16 µM, first compound 0.316 µM
[30] = second compound 3.16 µM, first compound 1 µM
[31] = second compound 10 µM, first compound 0.00316 µM
[32] = second compound 10 µM, first compound 0.01 µM
[33] = second compound 10 µM, first compound 0.0316 µM
[34] = second compound 10 µM, first compound 0.1 µM
[35] = second compound 10 µM, first compound 0.316 µM
[36] = second compound 10 µM, first compound 1 µM
[37] = second compound 0.0316 µM, first compound 3.16 µM
[38] = second compound 0.0316 µM, first compound 10 µM
[39] = second compound 0.1 µM, first compound 3.16 µM
[40] = second compound 0.1 µM, first compound 10 µM
[41] = second compound 0.316 µM, first compound 3.16 µM
[42] = second compound 0.316 µM, first compound 10 µM
[43] = second compound 1 µM, first compound 3.16 µM
[44] = second compound 1 µM, first compound 10 µM
[45] = second compound 3.16 µM, first compound 3.16 µM
[46] = second compound 3.16 µM, first compound 10 µM
[47] = second compound 10 µM, first compound 3.16 µM
[48] = second compound 10 µM, first compound 10 µM
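Further: spheroids exposed to compounds for seven days.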
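Wherever viability, T/C is given: 100% = DMSO vehicle control viability.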

Molecule CCc1c2c(nc3ccc(O)cc13)-c1cc3c(c(=O)n1C2)COC(=O)[C@]3(O)CC + COC1C(OC(N)=O)C(O)C(Oc2ccc3c(O)c(NC(=O)c4ccc(O)c(CC=C(C)C)c4)c(=O)oc3c2C)OC1(C)C has an IC50 (second compound 0.0316 µM) of 92.1 nM, an IC50 (second compound 0.1 µM) of 115 nM and an IC50 (second compound 0.316 µM) of 114 nM. It also gave an IC50 (second compound 1 µM) of 78.9 nM, an IC50 (second compound 3.16 µM) of 41.2 nM and an IC50 (second compound 10 µM) of 52.1 nM. For the same molecule, the viability, T/C [1] was 111%, the viability, T/C [2] was 71.8% and the viability, T/C [3] was 59.8%. It also gave a viability, T/C [4] of 54%, a viability, T/C [5] of 30.7% and a viability, T/C [6] of 19.4%. For the same molecule, the viability, T/C [7] was 108%, the viability, T/C [8] was 90.1% and the viability, T/C [9] was 64.6%. For the same molecule, the viability, T/C [10] was 51.8%, the viability, T/C [11] was 37.6% and the viability, T/C [12] was 19.2%. It also gave a viability, T/C [13] of 124%, a viability, T/C [14] of 81.2% and a viability, T/C [15] of 60.7%. It also gave a viability, T/C [16] of 51%, a viability, T/C [17] of 37.7% and a viability, T/C [18] of 18.6%. It also gave a viability, T/C [19] of 116%, a viability, T/C [20] of 93.8% and a viability, T/C [21] of 49.3%. For the same molecule, the viability, T/C [22] was 59.1%, the viability, T/C [23] was 30.9% and the viability, T/C [24] was 21.6%. The viability, T/C [25] was 115%, the viability, T/C [26] was 75.6% and the viability, T/C [27] was 46.3%. For the same molecule, the viability, T/C [28] was 47.8%, the viability, T/C [29] was 38.6% and the viability, T/C [30] was 25%. It also gave a viability, T/C [31] of 102%, a viability, T/C [32] of 72.6% and a viability, T/C [33] of 56%. The viability, T/C [34] was 39.2%, the viability, T/C [35] was 41.9% and the viability, T/C [36] was 16.6%.

Work on COc1cc2cc(C(=O)CCC(=O)O)sc2cc1OC + Nc1ccc(C#CCN(C(=O)Cc2ncc(C(F)(F)F)cc2C(F)(F)F)c2ccc(F)cc2)nn1 yielded an IC50 (second compound 0.0316 µM) of over 10000 nM, an IC50 (second compound 0.1 µM) of over 10000 nM and an IC50 (second compound 0.316 µM) of over 10000 nM. It also gave an IC50 (second compound 1 µM) of over 10000 nM, an IC50 (second compound 3.16 µM) of over 10000 nM and an IC50 (second compound 10 µM) of over 10000 nM. The viability, T/C [3] was 92.5%, the viability, T/C [4] was 94.8% and the viability, T/C [5] was 115%. The viability, T/C [6] was 102%, the viability, T/C [37] was 92.2% and the viability, T/C [38] was 95.2%. For the same molecule, the viability, T/C [9] was 112%, the viability, T/C [10] was 105% and the viability, T/C [11] was 81.5%. For the same molecule, the viability, T/C [12] was 102%, the viability, T/C [39] was 94.5% and the viability, T/C [40] was 125%. It also gave a viability, T/C [15] of 103%, a viability, T/C [16] of 95.3% and a viability, T/C [17] of 89.9%. The viability, T/C [18] was 87.3%, the viability, T/C [41] was 102% and the viability, T/C [42] was 79.9%. The viability, T/C [21] was 103%, the viability, T/C [22] was 84.5% and the viability, T/C [23] was 94%. For the same molecule, the viability, T/C [24] was 104%, the viability, T/C [43] was 107% and the viability, T/C [44] was 97.3%. For the same molecule, the viability, T/C [27] was 109%, the viability, T/C [28] was 112% and the viability, T/C [29] was 103%. For the same molecule, the viability, T/C [30] was 112%, the viability, T/C [45] was 100% and the viability, T/C [46] was 90.1%. For the same molecule, the viability, T/C [33] was 126%, the viability, T/C [34] was 116% and the viability, T/C [35] was 123%. The viability, T/C [36] was 107%, the viability, T/C [47] was 117% and the viability, T/C [48] was 104%.

C=CCn1c(=O)c2cnc(Nc3ccc(N4CCN(C)CC4)cc3)nc2n1-c1cccc(C(C)(C)O)n1 + COC1C(OC(N)=O)C(O)C(Oc2ccc3c(O)c(NC(=O)c4ccc(O)c(CC=C(C)C)c4)c(=O)oc3c2C)OC1(C)C showed an IC50 (second compound 0.0316 µM) of over 1000 nM, an IC50 (second compound 0.1 µM) of over 1000 nM and an IC50 (second compound 0.316 µM) of over 1000 nM. The IC50 (second compound 1 µM) was over 1000 nM, the IC50 (second compound 3.16 µM) was over 1000 nM and the IC50 (second compound 10 µM) was over 1000 nM. It also gave a viability, T/C [1] of 85.2%, a viability, T/C [2] of 97.7% and a viability, T/C [3] of 147%. It also gave a viability, T/C [4] of 120%, a viability, T/C [5] of 91.7% and a viability, T/C [6] of 64.7%. The viability, T/C [7] was 122%, the viability, T/C [8] was 108% and the viability, T/C [9] was 94.4%. The viability, T/C [10] was 118%, the viability, T/C [11] was 99.1% and the viability, T/C [12] was 89.9%. For the same molecule, the viability, T/C [13] was 113%, the viability, T/C [14] was 109% and the viability, T/C [15] was 134%. It also gave a viability, T/C [16] of 96.3%, a viability, T/C [17] of 98.7% and a viability, T/C [18] of 81.7%. It also gave a viability, T/C [19] of 114%, a viability, T/C [20] of 90.5% and a viability, T/C [21] of 93.1%. For the same molecule, the viability, T/C [22] was 109%, the viability, T/C [23] was 110% and the viability, T/C [24] was 67.8%. For the same molecule, the viability, T/C [25] was 118%, the viability, T/C [26] was 120% and the viability, T/C [27] was 78.4%. For the same molecule, the viability, T/C [28] was 91.5%, the viability, T/C [29] was 105% and the viability, T/C [30] was 76.4%. For the same molecule, the viability, T/C [31] was 88.5%, the viability, T/C [32] was 91.8% and the viability, T/C [33] was 87.2%. It also gave a viability, T/C [34] of 102%, a viability, T/C [35] of 96.7% and a viability, T/C [36] of 75.5%.

Work on CCc1cc2c(N3CCc4c(cc(Cn5ccnc5)cc4-c4cn(C)nc4C(F)(F)F)C3=O)cc(C)nc2c(OC)n1 + COC1C(OC(N)=O)C(O)C(Oc2ccc3c(O)c(NC(=O)c4ccc(O)c(CC=C(C)C)c4)c(=O)oc3c2C)OC1(C)C yielded an IC50 (second compound 0.0316 µM) of over 10000 nM, an IC50 (second compound 0.1 µM) of over 10000 nM and an IC50 (second compound 0.316 µM) of over 10000 nM. The IC50 (second compound 1 µM) was over 10000 nM, the IC50 (second compound 3.16 µM) was over 10000 nM and the IC50 (second compound 10 µM) was over 10000 nM. It also gave a viability, T/C [3] of 130%, a viability, T/C [4] of 152% and a viability, T/C [5] of 172%. It also gave a viability, T/C [6] of 158%, a viability, T/C [37] of 123% and a viability, T/C [38] of 74.5%. For the same molecule, the viability, T/C [9] was 120%, the viability, T/C [10] was 157% and the viability, T/C [11] was 124%. For the same molecule, the viability, T/C [12] was 131%, the viability, T/C [39] was 134% and the viability, T/C [40] was 68.9%. It also gave a viability, T/C [15] of 132%, a viability, T/C [16] of 126% and a viability, T/C [17] of 132%. For the same molecule, the viability, T/C [18] was 140%, the viability, T/C [41] was 119% and the viability, T/C [42] was 67.2%. It also gave a viability, T/C [21] of 141%, a viability, T/C [22] of 128% and a viability, T/C [23] of 143%. It also gave a viability, T/C [24] of 158%, a viability, T/C [43] of 108% and a viability, T/C [44] of 80.7%. It also gave a viability, T/C [27] of 109%, a viability, T/C [28] of 125% and a viability, T/C [29] of 133%. For the same molecule, the viability, T/C [30] was 126%, the viability, T/C [45] was 128% and the viability, T/C [46] was 73.8%. The viability, T/C [33] was 111%, the viability, T/C [34] was 109% and the viability, T/C [35] was 114%. For the same molecule, the viability, T/C [36] was 143%, the viability, T/C [47] was 123% and the viability, T/C [48] was 80%.
